From ChEMBL document CHEMBL1201862, “PubChem BioAssay data set” (2004)
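A five-concentration, 48-hour dose response in 96-well plates underlies each endpoint, interpolated linearly between surrounding concentrations. Here, GI50 denotes the concentration required for 50% inhibition of growth.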 Active and inactive are the calls of the source. Rule as the data show it: active = GI50 up to about 1.1 µM and inactive = higher. Bridge positions count the residues as written; N and C are the ends. Square brackets hold non-standard residues; d marks the D form. Peptide text beside a SMILES is read from it. * marks the point of attachment. Cya = N[CH](CS(=O)(=O)O)C(=O)O; X49 = CC(C)CCCCCCCC(O)CC(=O)*; GABA = NCCCC(=O)O

Key:
Test in all cases: NCI anticancer screen, dose series, 48 h
[1] = system: SK-MEL-28
[2] = system: BT-549
[3] = system: UACC-257
[4] = system: MDA-MB-231
[5] = system: MDA-MB-435
[6] = system: OVCAR-4
[7] = system: A498
[8] = system: HOP-62
[9] = system: HCT-116
[10] = system: SF-268
[11] = system: Hs-578T
[12] = system: 786-0
[13] = system: MCF7
[14] = system: HCT-15
[15] = system: UO-31
[16] = system: M14
[17] = system: CAKI-1
[18] = system: SNB-19
[19] = system: RPMI-8226

Row | SMILES | GI50 [1] | GI50 [2] | GI50 [3] | GI50 [4] | GI50 [5] | GI50 [6] | GI50 [7] | GI50 [8] | GI50 [9] | GI50 [10] | GI50 [11] | GI50 [12] | GI50 [13] | GI50 [14] [µM] | GI50 [15] | GI50 [16] | GI50 [17] | GI50 [18] | GI50 [19]
1 | Cc1c(C(=O)O)n2c(C)nnc2c2ccccc12 | > 100 µM (inactive) | > 100 µM (inactive) | > 100 µM (inactive) | > 100 µM (inactive) | > 100 µM (inactive) | > 100 µM (inactive) | > 100 µM (inactive) | > 100 µM (inactive) | > 100 µM (inactive) | > 100 µM (inactive) | > 100 µM (inactive) | > 100 µM (inactive) | > 100 µM (inactive) | > 100 | 61.5 µM (inactive) | > 100 µM (inactive) | > 100 µM (inactive) | – | –
2 | O=c1[nH]c(=O)c2c([nH]1)[nH]c1ccc(Br)cc12 | – | > 100 µM (inactive) | > 100 µM (inactive) | 93.5 µM (inactive) | > 100 µM (inactive) | – | > 100 µM (inactive) | > 100 µM (inactive) | > 100 µM (inactive) | 97.1 µM (inactive) | 45.3 µM (inactive) | 66.2 µM (inactive) | 69 µM (inactive) | 66.1 | 56.9 µM (inactive) | > 100 µM (inactive) | > 100 µM (inactive) | > 100 µM (inactive) | 79.6 µM (inactive)
3 | OC1OC(c2ccco2)C(F)(F)C(F)(F)C1(F)F (stereo not drawn) | > 100 µM (inactive) | > 100 µM (inactive) | > 100 µM (inactive) | 65.6 µM (inactive) | 43.6 µM (inactive) | 43.2 µM (inactive) | > 100 µM (inactive) | > 100 µM (inactive) | > 100 µM (inactive) | 71.3 µM (inactive) | 18.2 µM (inactive) | > 100 µM (inactive) | > 100 µM (inactive) | 90.4 | 59.6 µM (inactive) | > 100 µM (inactive) | – | > 100 µM (inactive) | 39.8 µM (inactive)
4 | Cc1nc(C)c(Cc2ccccc2)o1 | > 100 µM (inactive) | > 100 µM (inactive) | > 100 µM (inactive) | > 100 µM (inactive) | > 100 µM (inactive) | > 100 µM (inactive) | > 100 µM (inactive) | > 100 µM (inactive) | > 100 µM (inactive) | > 100 µM (inactive) | > 100 µM (inactive) | > 100 µM (inactive) | > 100 µM (inactive) | > 100 | 47.6 µM (inactive) | > 100 µM (inactive) | > 100 µM (inactive) | > 100 µM (inactive) | –
5 | O=C(NS(=O)(=O)Nc1ccc(Cl)cc1)OCc1ccc(Cl)cc1Cl | 29.6 µM (inactive) | 28.4 µM (inactive) | 46.6 µM (inactive) | 23.3 µM (inactive) | 22.1 µM (inactive) | 24 µM (inactive) | 3.94 µM (inactive) | 36.7 µM (inactive) | 20 µM (inactive) | 1.02 µM (active) | 14.2 µM (inactive) | 34.6 µM (inactive) | 14.8 µM (inactive) | 34.3 | 17.5 µM (inactive) | 41 µM (inactive) | – | 18.6 µM (inactive) | 54.5 µM (inactive)
6 | N/C(=N\O)N/N=C/c1cc(I)cc(I)c1O | 49.2 µM (inactive) | 47.4 µM (inactive) | 52.2 µM (inactive) | 54.8 µM (inactive) | 69.5 µM (inactive) | 27.6 µM (inactive) | > 100 µM (inactive) | 42.3 µM (inactive) | 23.7 µM (inactive) | 24.1 µM (inactive) | > 100 µM (inactive) | 22.2 µM (inactive) | 10 µM (inactive) | 5.37 | – | 19 µM (inactive) | 57.1 µM (inactive) | 49.5 µM (inactive) | –
7 | CC(C)CCCCCCCC(O)CC(=O)NC(CS(=O)(=O)O)C(=O)NC(CC(C)C)C(=O)NCCCC(=O)NC(Cc1c[nH]cn1)C(=O)NC(C)C(=O)NC1C(=O)NC(C(C)O)C(=O)NC(Cc2c[nH]cn2)C(=O)NC(C)C(=O)NC(C(C)O)C(=O)OC1C (stereo not drawn) (X49-[Cya]L[GABA]HATTHAT; ester 6-C; configuration not given here) | > 25 µM (inactive) | > 25 µM (inactive) | > 25 µM (inactive) | > 25 µM (inactive) | > 25 µM (inactive) | > 25 µM (inactive) | > 25 µM (inactive) | > 25 µM (inactive) | > 25 µM (inactive) | – | > 25 µM (inactive) | > 25 µM (inactive) | > 25 µM (inactive) | > 25 | > 25 µM (inactive) | > 25 µM (inactive) | > 25 µM (inactive) | > 25 µM (inactive) | > 25 µM (inactive)
8 | Cc1nc(O)nc(NNCc2ccc(Cl)cc2)c1C(=O)Nc1ccc(Cl)cc1 | > 100 µM (inactive) | > 100 µM (inactive) | > 100 µM (inactive) | > 100 µM (inactive) | 88.1 µM (inactive) | > 100 µM (inactive) | > 100 µM (inactive) | > 100 µM (inactive) | > 100 µM (inactive) | – | > 100 µM (inactive) | > 100 µM (inactive) | > 100 µM (inactive) | 50.1 | > 100 µM (inactive) | > 100 µM (inactive) | > 100 µM (inactive) | > 100 µM (inactive) | > 100 µM (inactive)
9 | CN1C(=O)N(C)C(O)C(Cl)(Br)C1=O (stereo not drawn) | > 100 µM (inactive) | > 100 µM (inactive) | > 100 µM (inactive) | > 100 µM (inactive) | > 100 µM (inactive) | – | > 100 µM (inactive) | – | > 100 µM (inactive) | > 100 µM (inactive) | > 100 µM (inactive) | > 100 µM (inactive) | > 100 µM (inactive) | > 100 | > 100 µM (inactive) | > 100 µM (inactive) | > 100 µM (inactive) | > 100 µM (inactive) | > 100 µM (inactive)
10 | COC(=O)[C@H]1COC(=O)N1 | > 100 µM (inactive) | > 100 µM (inactive) | > 100 µM (inactive) | > 100 µM (inactive) | > 100 µM (inactive) | > 100 µM (inactive) | > 100 µM (inactive) | > 100 µM (inactive) | > 100 µM (inactive) | > 100 µM (inactive) | > 100 µM (inactive) | > 100 µM (inactive) | > 100 µM (inactive) | > 100 | > 100 µM (inactive) | > 100 µM (inactive) | > 100 µM (inactive) | > 100 µM (inactive) | –
11 | CN(c1ccccc1Cl)S(=O)(=O)c1ccccc1[N+](=O)[O-] | 39.6 µM (inactive) | 22.6 µM (inactive) | 45.1 µM (inactive) | 37.2 µM (inactive) | 28.7 µM (inactive) | > 100 µM (inactive) | – | 41.6 µM (inactive) | 33.6 µM (inactive) | 55.8 µM (inactive) | > 100 µM (inactive) | 58.9 µM (inactive) | > 10 µM (inactive) | 48.9 | 31.6 µM (inactive) | 17.3 µM (inactive) | 48.8 µM (inactive) | 46.9 µM (inactive) | 24.8 µM (inactive)
12 | NC(=O)/C(=C\c1ccncc1)c1cccc2ccccc12 | > 100 µM (inactive) | > 100 µM (inactive) | < 0.01 µM (active) | > 100 µM (inactive) | > 100 µM (inactive) | > 100 µM (inactive) | – | > 100 µM (inactive) | > 100 µM (inactive) | > 100 µM (inactive) | > 100 µM (inactive) | > 100 µM (inactive) | > 100 µM (inactive) | > 100 | > 100 µM (inactive) | 55.1 µM (inactive) | > 100 µM (inactive) | > 100 µM (inactive) | > 100 µM (inactive)
13 | C[C@]12CCC(=O)C=C1CC[C@@H]1C2CC[C@]2(C)Nc3c(ncn3-c3ccc(F)cc3)CC12 (stereo partly drawn) | 29.3 µM (inactive) | 20.3 µM (inactive) | 17.8 µM (inactive) | 42.5 µM (inactive) | 12.6 µM (inactive) | 28.2 µM (inactive) | 22.3 µM (inactive) | 37.8 µM (inactive) | 15 µM (inactive) | 19.1 µM (inactive) | 16.3 µM (inactive) | 31 µM (inactive) | 18 µM (inactive) | – | 27 µM (inactive) | 23.8 µM (inactive) | 46.2 µM (inactive) | 49.2 µM (inactive) | –
14 | CSc1nc(Cl)c2c(n1)Sc1nc3cc4c(cc3n1C2O)OCCO4 (stereo not drawn) | 0.501 µM (active) | 0.489 µM (active) | 11.1 µM (inactive) | 0.321 µM (active) | 0.0158 µM (active) | 14.6 µM (inactive) | 0.708 µM (active) | 0.419 µM (active) | 0.0146 µM (active) | 0.459 µM (active) | 0.295 µM (active) | 0.0336 µM (active) | 0.053 µM (active) | 0.104 | 0.112 µM (active) | 0.0951 µM (active) | – | 0.344 µM (active) | 0.0318 µM (active)
15 | CCN1/C(=C/C#C/C(C)=C\c2sc3ccccc3[n+]2CC)Sc2ccccc21 | 3.35 µM (inactive) | 0.558 µM (active) | 1.32 µM (inactive) | 4.42 µM (inactive) | 2.36 µM (inactive) | 7.33 µM (inactive) | – | 5.37 µM (inactive) | 0.738 µM (active) | 2.86 µM (inactive) | 2.98 µM (inactive) | 3.13 µM (inactive) | 4.05 µM (inactive) | 3.69 | 2.03 µM (inactive) | 1.93 µM (inactive) | 2.39 µM (inactive) | 1.91 µM (inactive) | 0.222 µM (active)
16 | Nc1nc(O)c([I+]c2ccccc2)c(=O)[nH]1 | > 100 µM (inactive) | 57.1 µM (inactive) | > 100 µM (inactive) | > 100 µM (inactive) | > 100 µM (inactive) | > 100 µM (inactive) | > 100 µM (inactive) | > 100 µM (inactive) | > 100 µM (inactive) | > 100 µM (inactive) | > 100 µM (inactive) | > 100 µM (inactive) | > 100 µM (inactive) | > 100 | 85.1 µM (inactive) | – | > 100 µM (inactive) | > 100 µM (inactive) | > 100 µM (inactive)
